This assay deals with T1, factor XIa (Homo sapiens, UniProt P03951).
T1 construct: Human plasma proteins such as FXIIIa, thrombin, factor Xa, and factor XIa; purchased Haematologic Technologies; host or cells: human plasma
Put plainly: chromogenic substrate hydrolysis assay, factor XIa. It counts as biochemical. The settings on record: for IC50: Tris-HCl pH 7.4, 37 °C, > values from highest concentration used, read-out: FXIa IC50; for FXIa HS (Hill slope) / FXIa ΔY (efficacy): pH 7.4, 37 °C. An excerpt:
One of the motivations for targeting anion-binding sites on human FXIIIa was to achieve selectivity in inhibition over closely related enzymes such as other clotting serine proteases or other transglutaminases and cysteine proteases.
Human plasma proteins such as FXIIIa, thrombin, factor Xa, and factor XIa were procured from Haematologic Technologies. Recombinant human TG-2 was sourced from Tocris Bioscience. Their activities were validated according to the supplier’s instructions. Chromogenic substrates for thrombin and factor Xa were acquired from Biomedica Diagnostics, while the factor XIa chromogenic substrate (S-2366) was obtained from Diapharma. Dithiothreitol, N,N-dimethylcasein, and dansylcadaverine were purchased from Sigma Aldrich. Stock solutions of thrombin and factor XIa were prepared in 50 mM Tris-HCl buffer, pH 7.4, containing 150 mM sodium chloride, 0.1% PEG8000, and 0.02% Tween80. The stock solution of factor Xa was prepared in 20 mM Tris-HCl buffer, pH 7.4, containing 100 mM sodium chloride, 0.1% PEG8000, 2.5 mM CaCl2, and 0.02% Tween80. The stock solutions of FXIIIa and rTG-2 were prepared in 50 mM Tris-HCl, 1 mM CaCl2, 100 mM sodium chloride, 0.02% Tween80, 0.1% PEG8000, and 2 mg/mL dimethylcasein. Papain and its chromogenic substrate (N-α-benzoyl-L-arginyl-4-nitroanilide) were obtained from Sigma Aldrich. Papain was prepared in 50 mM Tris-HCl buffer, pH 7.4, containing 100 mM NaCl, 100 mM DTT, 2.5 mM CaCl2, 0.1% PEG8000, and 0.02% Tween80. Human plasma for coagulation assays was obtained from George King Bio-Medica for the clotting assays. Thromboplastin-D (PT reagent), APTT reagent containing ellagic acid, and 0.025 M solution of CaCl2 were obtained from Thermo Fisher Scientific. Results were reproduced at least three times.
The inhibitory potential of various heparin mimetics against other clotting factors, including thrombin, factor Xa, and factor XIa, was also examined using established chromogenic substrate hydrolysis assays.[47],[50] For instance, in each well of a 96-well microplate containing either 85 or 185 μL of 20–50 mM Tris-HCl buffer (pH 7.4), supplemented with 100–150 mM NaCl, 0.1% PEG8000, and 0.02% Tween80 at either 25 or 37 °C, 5 μL of the inhibitor (or high purity water) and 5 μL of the enzyme were added. The final concentrations of the enzymes were 6 nM (thrombin), 1.09 nM (factor Xa), and 0.8 nM (factor XIa). After a 5 min incubation period, 5 μL of Spectrozyme TH (final concentration: 0.050 mM), Spectrozyme FXa (0.125 mM), or factor XIa substrate (0.35 mM) was swiftly added, and the residual enzyme activity was gauged from the initial rate of increase in absorbance at λ405 nm. The relative residual enzyme activity was calculated as a function of the inhibitor concentration. If 50% or more of the enzyme was inhibited, the results were then plotted using eq 1 to determine the corresponding IC50 values.

T1 sequence (P03951 388-625 limits assumed): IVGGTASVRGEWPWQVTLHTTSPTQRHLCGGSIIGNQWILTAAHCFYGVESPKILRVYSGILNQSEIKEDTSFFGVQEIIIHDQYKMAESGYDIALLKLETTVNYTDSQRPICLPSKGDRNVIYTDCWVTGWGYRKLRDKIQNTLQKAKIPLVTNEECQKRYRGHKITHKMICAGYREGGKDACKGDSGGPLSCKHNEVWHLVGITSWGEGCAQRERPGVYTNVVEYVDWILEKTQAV
T1 sequence (P03951 19-387 limits assumed): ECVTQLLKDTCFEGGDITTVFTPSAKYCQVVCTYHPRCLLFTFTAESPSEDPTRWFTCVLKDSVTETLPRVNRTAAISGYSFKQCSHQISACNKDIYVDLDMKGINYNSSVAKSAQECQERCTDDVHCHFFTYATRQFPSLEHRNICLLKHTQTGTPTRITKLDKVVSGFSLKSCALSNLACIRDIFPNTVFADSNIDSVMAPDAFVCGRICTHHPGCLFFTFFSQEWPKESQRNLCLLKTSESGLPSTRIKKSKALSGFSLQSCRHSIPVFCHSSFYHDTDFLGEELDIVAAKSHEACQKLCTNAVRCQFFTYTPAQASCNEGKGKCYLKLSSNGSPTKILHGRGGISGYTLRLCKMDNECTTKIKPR

As a reminder, the IC50 is the concentration needed to halve the response being measured. In the case of `Nc1c(/N=N/c2ccc(Nc3nc(Cl)nc(Nc4cccc(S(=O)(=O)O)c4)n3)cc2S(=O)(=O)O)c(S(=O)(=O)O)cc2c(O)c(/N=N/c3ccc(Nc4nc(Cl)nc(Nc5cccc(S(=O)(=O)O)c5)n4)cc3S(=O)(=O)O)ccc12` [compound 14], the “selectivity index for FXIIIa over factor XIa” value (from here on “selectivity index for FXIIIa”) was more than 30 fold and the half-inhibitory concentration (IC50) is more than 150 µM.

`COc1cc(-c2ccc(/N=N/c3ccc4c(S(=O)(=O)O)cc(S(=O)(=O)O)c(N)c4c3O)c(OC)c2)ccc1/N=N/c1ccc2c(S(=O)(=O)O)cc(S(=O)(=O)O)c(N)c2c1O` [compound 19]: the 50% inhibitory concentration (IC50) was found to be 6.2 ± 0.4 µM, the “FXIa HS (Hill slope)” value was 1.5 ± 0.1 and the “FXIa ΔY (efficacy)” value is recorded as 106 ± 3%.

On to `Cc1cc(-c2ccc(/N=N/c3ccc4c(S(=O)(=O)O)cc(S(=O)(=O)O)c(N)c4c3O)c(C)c2)ccc1/N=N/c1ccc2c(S(=O)(=O)O)cc(S(=O)(=O)O)c(N)c2c1O` [compound 18], for which the “FXIa HS (Hill slope)” value was 1.9 ± 0.3 and the “FXIa ΔY (efficacy)” value is reported as 104 ± 3%.

As to `Nc1c(/N=N/c2ccc(S(=O)(=O)CCOS(=O)(=O)O)cc2)c(S(=O)(=O)O)cc2cc(S(=O)(=O)O)c(/N=N/c3ccc(S(=O)(=O)CCOS(=O)(=O)O)cc3)c(O)c12` [compound 16], the “selectivity index for FXIIIa” value is more than 65 fold and the half-inhibitory concentration (IC50) was more than 150 µM.

On to `Nc1c(S(=O)(=O)O)cc(Nc2ccc(Nc3nc(Cl)nc(Nc4ccccc4S(=O)(=O)O)n3)c(S(=O)(=O)O)c2)c2c1C(=O)c1ccccc1C2=O` [compound 13], for which the “selectivity index for FXIIIa” value is listed as more than 48 fold and the concentration for half-maximal inhibition (IC50) was more than 150 µM.

The values are drawn from paper PMC11256326, “Discovery of Heparin Mimetic, Potent, and Selective Inhibitors of Human Clotting Factor XIIIa” (ACS Omega, 2024).
